The target in data set [1] is T1, Serine/threonine-protein kinase PLK1 (Homo sapiens, UniProt P53350). Put plainly: Inhibition of full length human PLK1 at 20 uM using casein as substrate after 40 mins in presence of [gamma-33P]-ATP by radiometric assay relative to control.
In data set [2] the test system is BT-483. Put plainly: Induction of apoptosis in human BT-483 cells assessed as live cells at 5 uM by Annexin V-FITC/propidium iodide staining based flow cytometry (reference value: 87.5%). The data set is classed as functional. In general terms: A flow cytometer gives signals particle by particle.
The subject of data set [3] is BT-483. As to the kind of experiment: Induction of apoptosis in human BT-483 cells assessed as necrotic cells at 5 uM by Annexin V-FITC/propidium iodide staining based flow cytometry (reference value: 0.18%). It is filed as functional.
The test system of data set [4] is BT-483. Put plainly: Induction of apoptosis in human BT-483 cells assessed as necrotic cells at 10 uM by Annexin V-FITC/propidium iodide staining based flow cytometry (reference value: 0.18%). It is filed as functional.
Another data set deals with MDA-MB-231. Put plainly: Cytotoxicity against human MDA-MB-231 cells after 24 hrs by MTT assay. It is filed as functional, cell-based. In general terms: Tetrazolium assays rely on reduction of a dye to a coloured formazan, in cell work by metabolically active cells.
The subject of data set [5] is BT-483. Put plainly: Induction of autophagy in human BT-483 cells transfected with GFP-fused LC3 assessed as aggregation of GFP-LC3 punctures after 6 hrs by DAPI staining based assay. The data set is classed as functional, cell-based.
The subject of data set [6] is BT-483. As to the kind of experiment: Effect on total EEF2K protein expression in human BT-483 cells at 5 to 10 uM by Western blot analysis. The data set is classed as ADME, cell-based. Conditions: bt-483, 10 µM.
The target in data set [7] is Tyrosine-protein kinase ABL1 (Homo sapiens) (UniProt P00519). As to the kind of experiment: Inhibition of wild-type human phosphorylated ABL1 (S229 to K512 residues) expressed in mammalian expression system assessed as residual activity at 1 uM by Kinomescan method relative to control.
Chain of Tyrosine-protein kinase ABL1 (Homo sapiens) (P00519 whole entry, the tested form may be a part): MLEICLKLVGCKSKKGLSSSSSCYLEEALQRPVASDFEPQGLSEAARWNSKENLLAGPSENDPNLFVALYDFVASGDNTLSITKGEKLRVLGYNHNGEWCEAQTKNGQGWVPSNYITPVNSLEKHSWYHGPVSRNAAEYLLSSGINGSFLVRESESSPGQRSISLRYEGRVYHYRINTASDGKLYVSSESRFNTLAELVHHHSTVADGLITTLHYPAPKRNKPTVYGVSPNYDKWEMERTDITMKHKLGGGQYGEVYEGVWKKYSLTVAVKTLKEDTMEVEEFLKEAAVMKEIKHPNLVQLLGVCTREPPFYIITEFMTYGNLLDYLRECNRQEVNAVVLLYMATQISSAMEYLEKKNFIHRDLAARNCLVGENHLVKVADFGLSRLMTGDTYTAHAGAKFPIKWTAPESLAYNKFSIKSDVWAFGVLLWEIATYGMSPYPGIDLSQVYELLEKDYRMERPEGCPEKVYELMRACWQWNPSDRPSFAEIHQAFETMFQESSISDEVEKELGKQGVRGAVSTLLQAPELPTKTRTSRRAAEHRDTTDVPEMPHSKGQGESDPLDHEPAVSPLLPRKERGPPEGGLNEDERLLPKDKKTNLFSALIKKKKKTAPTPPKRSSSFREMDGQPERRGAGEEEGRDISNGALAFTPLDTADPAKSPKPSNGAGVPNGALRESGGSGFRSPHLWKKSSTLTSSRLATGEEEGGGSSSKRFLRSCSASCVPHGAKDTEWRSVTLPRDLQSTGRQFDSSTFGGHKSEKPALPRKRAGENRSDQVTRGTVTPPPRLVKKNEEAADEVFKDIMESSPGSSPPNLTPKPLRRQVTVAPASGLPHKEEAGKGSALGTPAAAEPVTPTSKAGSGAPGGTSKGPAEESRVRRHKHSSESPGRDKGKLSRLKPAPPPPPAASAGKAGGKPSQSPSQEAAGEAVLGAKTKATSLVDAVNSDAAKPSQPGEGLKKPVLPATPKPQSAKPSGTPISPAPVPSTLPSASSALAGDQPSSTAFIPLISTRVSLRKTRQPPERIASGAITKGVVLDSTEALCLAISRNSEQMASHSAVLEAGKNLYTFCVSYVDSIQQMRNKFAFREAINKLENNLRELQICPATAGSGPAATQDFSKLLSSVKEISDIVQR
Data set [8] deals with Aurora kinase B (Homo sapiens) (UniProt Q96GD4). As to the kind of experiment: Inhibition of wild-type human partial length AURKB (D25 to A303 residues) expressed in mammalian expression system assessed as residual activity at 1 uM by Kinomescan method relative to control.
Chain of Aurora kinase B (Homo sapiens) (Q96GD4 whole entry, the tested form may be a part): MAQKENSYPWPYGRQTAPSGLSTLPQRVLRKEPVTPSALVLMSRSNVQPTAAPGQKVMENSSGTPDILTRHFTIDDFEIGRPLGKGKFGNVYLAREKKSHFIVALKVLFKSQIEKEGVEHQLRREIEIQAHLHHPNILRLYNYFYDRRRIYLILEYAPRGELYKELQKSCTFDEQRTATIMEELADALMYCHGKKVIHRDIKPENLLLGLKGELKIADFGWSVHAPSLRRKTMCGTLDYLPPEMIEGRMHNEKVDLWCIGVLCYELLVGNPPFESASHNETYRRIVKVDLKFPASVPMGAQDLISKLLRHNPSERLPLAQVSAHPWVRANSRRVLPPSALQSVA
Data set [9] concerns the target Macrophage colony-stimulating factor 1 receptor (Homo sapiens) (UniProt P07333). As to the kind of experiment: Inhibition of wild-type human partial length CSF1R (I564 to S939 residues) expressed in bacterial expression system assessed as residual activity at 1 uM by Kinomescan method relative to control.
Data set [10] has as its system Epidermal growth factor receptor (Homo sapiens), P00533 [L858R]. Put plainly: Inhibition of human partial length EGFR L858R mutant (R669 to V1011 residues) expressed in bacterial expression system assessed as residual activity at 1 uM by Kinomescan method relative to control.
Data set [11] has as its target Receptor tyrosine-protein kinase erbB-2 (Homo sapiens) (UniProt P04626). As to the kind of experiment: Inhibition of wild-type human partial length ERBB2 (K646 to V1225 residues) expressed in mammalian expression system assessed as residual activity at 1 uM by Kinomescan method relative to control.
Data set [12] has as its target Mitogen-activated protein kinase 1 (Homo sapiens) (UniProt P28482). As to the kind of experiment: Inhibition of wild-type human full length ERK2 (M1 to S360 residues) expressed in bacterial expression system assessed as residual activity at 1 uM by Kinomescan method relative to control.
Data set [13] deals with Mast/stem cell growth factor receptor Kit (Homo sapiens), P10721 [D816V]. As to the kind of experiment: Inhibition of human partial length KIT D816V mutant (I571 to D952 residues) expressed in bacterial expression system assessed as residual activity at 1 uM by Kinomescan method relative to control.
Chain of Mast/stem cell growth factor receptor Kit (Homo sapiens), P10721 [D816V] (P10721 whole entry D816V, the tested form may be a part): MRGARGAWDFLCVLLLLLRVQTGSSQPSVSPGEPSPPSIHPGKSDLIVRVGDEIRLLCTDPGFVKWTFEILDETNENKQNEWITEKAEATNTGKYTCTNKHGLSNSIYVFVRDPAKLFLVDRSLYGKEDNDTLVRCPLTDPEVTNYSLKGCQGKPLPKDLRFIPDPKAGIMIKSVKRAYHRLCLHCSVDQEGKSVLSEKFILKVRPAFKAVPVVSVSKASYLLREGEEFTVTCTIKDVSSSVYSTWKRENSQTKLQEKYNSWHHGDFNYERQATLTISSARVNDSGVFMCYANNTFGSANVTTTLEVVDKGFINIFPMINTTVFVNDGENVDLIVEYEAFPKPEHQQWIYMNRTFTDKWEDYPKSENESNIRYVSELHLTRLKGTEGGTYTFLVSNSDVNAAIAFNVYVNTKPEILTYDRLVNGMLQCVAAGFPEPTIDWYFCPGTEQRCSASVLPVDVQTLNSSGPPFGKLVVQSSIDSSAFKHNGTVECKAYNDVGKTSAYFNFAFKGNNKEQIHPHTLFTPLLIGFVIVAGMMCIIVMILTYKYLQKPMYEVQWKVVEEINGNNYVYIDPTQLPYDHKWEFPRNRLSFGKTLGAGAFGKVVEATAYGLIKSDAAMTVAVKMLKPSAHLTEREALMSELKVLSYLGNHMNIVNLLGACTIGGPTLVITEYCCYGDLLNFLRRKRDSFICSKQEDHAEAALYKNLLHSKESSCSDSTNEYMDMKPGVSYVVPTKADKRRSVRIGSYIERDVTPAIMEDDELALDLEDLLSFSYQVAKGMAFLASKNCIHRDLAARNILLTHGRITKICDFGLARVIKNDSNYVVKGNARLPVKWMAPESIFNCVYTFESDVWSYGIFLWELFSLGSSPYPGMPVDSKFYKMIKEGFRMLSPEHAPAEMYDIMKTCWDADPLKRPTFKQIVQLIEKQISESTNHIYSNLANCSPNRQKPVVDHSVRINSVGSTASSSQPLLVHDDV
The target in data set [14] is Platelet-derived growth factor receptor beta (Homo sapiens) (UniProt P09619). Put plainly: Inhibition of wild-type human partial length PDGFRB (V582 to Y1009 residues) expressed in bacterial expression system assessed as residual activity at 1 uM by Kinomescan method relative to control.
Chain of Platelet-derived growth factor receptor beta (Homo sapiens) (P09619 whole entry, the tested form may be a part): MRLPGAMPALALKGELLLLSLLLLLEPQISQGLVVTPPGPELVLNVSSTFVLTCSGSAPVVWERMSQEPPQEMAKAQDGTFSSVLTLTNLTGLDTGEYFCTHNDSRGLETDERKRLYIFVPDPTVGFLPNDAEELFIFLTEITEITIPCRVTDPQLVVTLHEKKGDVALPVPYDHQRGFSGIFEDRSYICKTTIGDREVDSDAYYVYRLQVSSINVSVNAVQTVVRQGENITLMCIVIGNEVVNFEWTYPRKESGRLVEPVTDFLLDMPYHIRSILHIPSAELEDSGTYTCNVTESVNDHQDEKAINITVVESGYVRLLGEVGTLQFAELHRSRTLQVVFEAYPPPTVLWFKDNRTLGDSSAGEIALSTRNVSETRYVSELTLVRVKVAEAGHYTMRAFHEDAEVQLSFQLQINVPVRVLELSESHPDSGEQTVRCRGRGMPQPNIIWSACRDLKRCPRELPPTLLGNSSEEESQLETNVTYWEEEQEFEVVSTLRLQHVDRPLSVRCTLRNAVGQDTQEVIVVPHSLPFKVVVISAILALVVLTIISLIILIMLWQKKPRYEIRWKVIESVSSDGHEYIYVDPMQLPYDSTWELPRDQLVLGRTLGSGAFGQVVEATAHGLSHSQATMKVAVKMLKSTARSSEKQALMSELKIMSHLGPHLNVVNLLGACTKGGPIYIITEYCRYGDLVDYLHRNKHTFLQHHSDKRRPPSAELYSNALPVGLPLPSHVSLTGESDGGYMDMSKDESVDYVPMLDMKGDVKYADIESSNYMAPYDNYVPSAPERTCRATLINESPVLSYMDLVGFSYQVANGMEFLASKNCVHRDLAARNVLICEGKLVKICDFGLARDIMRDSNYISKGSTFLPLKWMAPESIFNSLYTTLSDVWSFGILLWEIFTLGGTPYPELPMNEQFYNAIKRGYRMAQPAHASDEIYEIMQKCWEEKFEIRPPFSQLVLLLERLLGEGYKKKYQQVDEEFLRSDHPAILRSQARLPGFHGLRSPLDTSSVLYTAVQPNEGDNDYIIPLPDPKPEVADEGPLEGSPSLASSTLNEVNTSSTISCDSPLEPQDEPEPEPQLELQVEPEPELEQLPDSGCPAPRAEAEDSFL
Data set [15] has as its target T1, Serine/threonine-protein kinase PLK1. As to the kind of experiment: Inhibition of wild-type human partial length PLK1 (A33 to F325 residues) expressed in mammalian expression system assessed as residual activity at 1 uM by Kinomescan method relative to control.

Calls of active or inactive are those of the source. The calls are words filed in the database; no cut-off is given here.

T1 sequence (P53350 whole entry): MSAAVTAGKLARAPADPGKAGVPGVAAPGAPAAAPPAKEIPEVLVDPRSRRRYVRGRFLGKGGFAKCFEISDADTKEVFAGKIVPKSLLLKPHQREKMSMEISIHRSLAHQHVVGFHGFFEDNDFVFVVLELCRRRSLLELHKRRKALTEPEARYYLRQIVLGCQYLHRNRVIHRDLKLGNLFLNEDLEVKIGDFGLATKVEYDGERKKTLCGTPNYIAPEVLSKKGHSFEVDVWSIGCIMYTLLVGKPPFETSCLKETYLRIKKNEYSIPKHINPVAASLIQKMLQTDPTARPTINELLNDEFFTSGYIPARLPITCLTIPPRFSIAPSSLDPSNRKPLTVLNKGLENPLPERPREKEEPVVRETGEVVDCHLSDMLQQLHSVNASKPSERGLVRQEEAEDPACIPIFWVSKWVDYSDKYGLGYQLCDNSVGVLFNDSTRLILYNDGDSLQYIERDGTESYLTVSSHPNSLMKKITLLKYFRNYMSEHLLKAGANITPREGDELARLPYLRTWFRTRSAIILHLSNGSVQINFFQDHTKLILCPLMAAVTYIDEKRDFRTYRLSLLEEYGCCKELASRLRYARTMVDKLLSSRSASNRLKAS
Chain of Mitogen-activated protein kinase 1 (Homo sapiens) (P28482 whole entry, the tested form may be a part): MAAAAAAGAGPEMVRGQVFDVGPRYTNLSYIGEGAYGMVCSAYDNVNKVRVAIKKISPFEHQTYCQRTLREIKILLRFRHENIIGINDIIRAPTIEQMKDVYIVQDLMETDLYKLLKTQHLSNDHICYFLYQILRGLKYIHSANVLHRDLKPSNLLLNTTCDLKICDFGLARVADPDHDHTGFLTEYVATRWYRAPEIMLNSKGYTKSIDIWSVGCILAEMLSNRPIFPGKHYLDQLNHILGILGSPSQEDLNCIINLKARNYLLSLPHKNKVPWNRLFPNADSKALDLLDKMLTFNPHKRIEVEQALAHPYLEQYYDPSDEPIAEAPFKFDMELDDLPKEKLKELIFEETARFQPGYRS

Broadly, the inhibition is the change of the read-out against control, counted positive when it falls. For `CCNc1cc(-c2ccc(NC(=O)Nc3cccc(Cl)c3)cc2C(F)(F)F)ccn1`, the inhibition in [1] is 94.9%. Besides, the Activity in the data set on BT-483 [2] was 86.2%; in the data set with BT-483 [3], 0.45%; with BT-483 [4], 0.48%; with BT-483 [6], “Non-Toxic”; in [7], 83%; in data set [8], 95%. Moreover, the Activity amounted to 85% in data set [9]; 99% in data set [10]; 98% in data set [11]; 80% in [12]; 84% in data set [13]; 83% in data set [14]. Moreover, the Activity in data set [15] came out at 7%. In addition, the result in the data set on MDA-MB-231 and with BT-483 [5] was Active.

The values are drawn from ChEMBL document CHEMBL4251622, “Design, synthesis, and biological evaluation of polo-like kinase 1/eukaryotic elongation factor 2 kinase (PLK1/EEF2K) dual inhibitors for regulating breast cancer cells apoptosis and autophagy” (Eur J Med Chem, 2018).
